Here are results for 24 molecules from patent publication US20260274799A1, “HETEROCYCLIC DERIVATIVES, COMPOSITIONS AND USES THEREOF” (DANATLAS PHARMACEUTICALS CO., LTD., priority 2023, published 2026).

Molecules are shown by their SMILES. Read-outs that look alike come from different tables or passages of the source.

For this assay, the target named is T1, PPARγ-LBD (UniProt ID: P37231-2) (Homo sapiens, UniProt P37231).
T1 construct: PPARγ-LBD (UniProt ID: P37231-2) was expressed and purified in insect system; made in house
T1 sequence (P37231 238-503 limits assumed): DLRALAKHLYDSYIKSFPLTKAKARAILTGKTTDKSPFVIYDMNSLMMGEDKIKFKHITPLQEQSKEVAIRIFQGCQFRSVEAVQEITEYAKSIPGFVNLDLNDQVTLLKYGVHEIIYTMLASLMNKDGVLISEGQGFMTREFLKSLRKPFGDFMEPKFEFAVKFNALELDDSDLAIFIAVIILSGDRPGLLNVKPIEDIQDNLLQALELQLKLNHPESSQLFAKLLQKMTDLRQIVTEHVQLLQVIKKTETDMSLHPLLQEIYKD
In words: PPARγ-SMRT recruitment assay (TR-FRET). The format is biochemical. To be noted: for Emax: 1 h, read-out: Top %; for EC50: TR-FRET, SMRT peptide recruitment to PPARγ-LBD, 120 min pre-incubation. Here is the method: PPARγ TR-FRET assay was initiated to evaluate potential activatory effect of the compounds of the present disclosure for SMRT recruitment to PPARγ protein. PPARγ-LBD (UniProt ID: P37231-2) was expressed and purified in insect system and stored at −80° C. in aliquots. Biotinylated SMRT peptide was synthesized (Biotin-[…]). 5 μL protein solution mixture consisting of 10 nM PPARγ-LBD and 2 nM Anti-His Eu (Cisbio, 61HISKLA) in assay buffer (25 mM HEPES pH7.4, 25 mM KCl, 1 mM EDTA, 0.01% BSA, 0.01% Tween-20, 1 mM TCEP) was added to 384-well plates containing duplicate 10-point dose response titration of compounds in 5 μL assay buffer (1% f.c. DMSO(v/v)). After 120 min pre-incubation at room temperature, 5 μL peptide solution mixture consisting of 50 nM Biotin-SMRT peptide and 25 nM Streptavidin-XL665 (Cisbio, 610SAXLA) added to plates. Plates were incubated for 60 min. and read in CLARIOstar Plus plate reader with Ex/Em 620 nm/[…]. Average TR-FRET ratio of high control (Wells with 10 uM control compound) was calculated as High Control (HC). Average TR-FRET ratio of low control (Wells with 1% DMSO) was calculated as Low control (LC). For one compound, top % is the max value of % Activation.
EC50 values were determined by fitting the data to the standard 4 parameters with Hill Slope using GraphPad Prism software. […] ND: No Determine.
A general note: TR-FRET usually uses a lanthanide donor and a delayed reading to cut background.

Setting [1] is: max value of % Activation, high control 10 uM control compound, low control 1% DMSO.

The term EC50 denotes the concentration at which the effect is half-maximal. High values mean a less potent agent, low ones a more potent agent. `CS(=O)(=O)c1ccc(C#N)cc1-c1cc(=O)c2c(F)c(C#Cc3ccccc3Cl)c(F)cc2[nH]1` [Example 33, 3-(6-((2-Chlorophenyl)ethynyl)-5,7-difluoro-4-oxo-1,4-dihydroquinolin-2-yl)-4-(methylsulfonyl)benzonitrile]: the EC50 is under 100 nM. In addition, under setting [1], the Emax was found to be 502%.
The matching figures for `Cc1cccc(C#Cc2c(F)cc3[nH]c(-c4cc(C#N)ccc4S(C)(=O)=O)cc(=O)c3c2F)n1` [Example 31, 3-(5,7-Difluoro-6-((6-methylpyridin-2-yl)ethynyl)-4-oxo-1,4-dihydroquinolin-2-yl)-4-(methylsulfonyl)benzonitrile]: under 100 nM and 181%.
Regarding `CS(=O)(=O)c1ccc(C#N)cc1-c1cc(=O)c2c(F)c(CCC3CCOCC3)c(F)cc2[nH]1` [Example 25, 3-(5,7-Difluoro-4-oxo-6-(2-(tetrahydro-2H-pyran-4-yl)ethyl)-1,4-dihydroquinolin-2-yl)-4-(methylsulfonyl)benzonitrile], the EC50 is under 100 nM.
Take `CS(=O)(=O)c1ccc(C#N)cc1-c1cc(=O)c2c(F)c(C#Cc3ccncc3OC(F)F)c(F)cc2[nH]1` [Example 47, 3-(6-((3-(Difluoromethoxy)pyridin-4-yl)ethynyl)-5,7-difluoro-4-oxo-1,4-dihydroquinolin-2-yl)-4-(methylsulfonyl)benzonitrile]: the Emax came out at 376% and the EC50 was under 100 nM.
For the molecule `CS(=O)(=O)c1ccc(C#N)cc1-c1cc(=O)c2c(F)c(OCC3CCC3)c(F)cc2[nH]1` [Example 26, 3-(6-(Cyclobutylmethoxy)-5,7-difluoro-4-oxo-1,4-dihydroquinolin-2-yl)-4-(methylsulfonyl)benzonitrile], the EC50 was under 100 nM.
As to `CS(=O)(=O)c1ccc(C#N)cc1-c1cc(=O)c2c(F)c(/C=C/c3ccccc3)c(F)cc2[nH]1` [Example 53, (E)-3-(5,7-Difluoro-4-oxo-6-styryl-1,4-dihydroquinolin-2-yl)-4-(methylsulfonyl)benzonitrile], the EC50 was under 100 nM. The Emax under setting [1] is 650%.
The matching figures for `CS(=O)(=O)c1ccc(C#N)cc1-c1cc(=O)c2c(F)c(C#Cc3ccccc3C#N)c(F)cc2[nH]1` [Example 42, 3-(6-((2-Cyanophenyl)ethynyl)-5,7-difluoro-4-oxo-1,4-dihydroquinolin-2-yl)-4-(methylsulfonyl)benzonitrile]: under 100 nM and 231%.
The matching figures for `CC1(C#Cc2c(F)cc3[nH]c(-c4cc(C#N)ccc4S(C)(=O)=O)cc(=O)c3c2F)COC1` [Example 45, 3-(5,7-Difluoro-6-((3-methyloxetan-3-yl)ethynyl)-4-oxo-1,4-dihydroquinolin-2-yl)-4-(methylsulfonyl)benzonitrile]: under 100 nM and 249%.
For `CS(=O)(=O)c1ccc(C#N)cc1-c1cc(=O)c2c(F)c(C3CC3)c(F)cc2[nH]1` [Example 13, 3-(6-Cyclopropyl-5,7-difluoro-4-oxo-1,4-dihydroquinolin-2-yl)-4-(methylsulfonyl)benzonitrile], in that order: under 100 nM and 187%.
`Cc1cnccc1C#Cc1c(F)cc2[nH]c(-c3cc(C#N)ccc3S(C)(=O)=O)cc(=O)c2c1F` [Example 28, 3-(5,7-Difluoro-6-((3-methylpyridin-4-yl)ethynyl)-4-oxo-1,4-dihydroquinolin-2-yl)-4-(methylsulfonyl)benzonitrile]: the EC50 is under 100 nM. For the same molecule, the Emax under setting [1] is 293%.
The matching figures for `CS(=O)(=O)c1ccc(C#N)cc1-c1cc(=O)c2c(F)c(C#CCCO)c(F)cc2[nH]1` [Example 6, 3-(5,7-Difluoro-6-(4-hydroxybut-1-yn-1-yl)-4-oxo-1,4-dihydroquinolin-2-yl)-4-(methylsulfonyl)benzonitrile]: under 100 nM and 266%.
Molecule `CC(C)(C)C#Cc1c(F)cc2[nH]c(-c3cc(C#N)ccc3S(C)(=O)=O)cc(=O)c2c1F` [Example 10, 3-(6-(3,3-Dimethylbut-1-yn-1-yl)-5,7-difluoro-4-oxo-1,4-dihydroquinolin-2-yl)-4-(methylsulfonyl)benzonitrile] returned an EC50 of under 100 nM.
`CS(=O)(=O)c1ccc(C#N)cc1-c1cc(=O)c2c(F)c(C#CCO)c(F)cc2[nH]1` [Example 3, 3-(5,7-Difluoro-6-(3-hydroxyprop-1-yn-1-yl)-4-oxo-1,4-dihydroquinolin-2-yl)-4-(methylsulfonyl)benzonitrile] gave an EC50 of under 100 nM. Further, the Emax under setting [1] stood at 300%.
For `C[C@@H](O)C#Cc1c(F)cc2[nH]c(-c3cc(C#N)ccc3S(C)(=O)=O)cc(=O)c2c1F` [Example 4, (R)-3-(5,7-Difluoro-6-(3-hydroxybut-1-yn-1-yl)-4-oxo-1,4-dihydroquinolin-2-yl)-4-(methylsulfonyl)benzonitrile], in that order: under 100 nM and 200%.
The matching figures for `CC(C)(O)C#Cc1c(F)cc2[nH]c(-c3cc(C#N)ccc3S(C)(=O)=O)cc(=O)c2c1F` [Example 1, 3-(5,7-Difluoro-6-(3-hydroxy-3-methylbut-1-yn-1-yl)-4-oxo-1,4-dihydroquinolin-2-yl)-4-(methylsulfonyl)benzonitrile]: under 100 nM and 495%.
Consider `CS(=O)(=O)c1ccc(C#N)cc1-c1cc(=O)c2c(F)c(C#Cc3cnc4cccnn34)c(F)cc2[nH]1` [Example 40, 3-(5,7-Difluoro-6-(imidazo[1,2-h]pyridazin-3-ylethynyl)-4-oxo-1,4-dihydroquinolin-2-yl)-4-(methylsulfonyl)benzonitrile], for which the EC50 was under 100 nM. For the same molecule, under setting [1], the Emax came to 237%.
`Cc1cncc(C)c1C#Cc1c(F)cc2[nH]c(-c3cc(C#N)ccc3S(C)(=O)=O)cc(=O)c2c1F` [Example 32, 3-(6-((3,5-Dimethylpyridin-4-yl)ethynyl)-5,7-difluoro-4-oxo-1,4-dihydroquinolin-2-yl)-4-(methylsulfonyl)benzonitrile] yielded an EC50 of under 100 nM. Also, the Emax under setting [1] stood at 343%.
In turn, `CS(=O)(=O)c1ccc(C#N)cc1-c1cc(=O)c2c(F)c(C#CC3(O)COC3)c(F)cc2[nH]1` [Example 7, 3-(5,7-Difluoro-6-((3-hydroxyoxetan-3-yl)ethynyl)-4-oxo-1,4-dihydroquinolin-2-yl)-4-(methylsulfonyl)benzonitrile] showed an EC50 of under 100 nM. Besides, the Emax under setting [1] worked out at 207%.
For `CS(=O)(=O)c1ccc(C#N)cc1-c1cc(=O)c2c(F)c(C#CC3CCOC3)c(F)cc2[nH]1` (stereo not drawn) [Example 34, 3-(5,7-Difluoro-4-oxo-6-((tetrahydrofuran-3-yl)ethynyl)-1,4-dihydroquinolin-2-yl)-4-(methylsulfonyl)benzonitrile], in that order: under 100 nM and 290%.
For `Cn1nnnc1Sc1ccc(C#N)cc1-c1cc(=O)c2c(F)cc(F)cc2[nH]1` [Example 54, 3-(5,7-Difluoro-4-oxo-1,4-dihydroquinolin-2-yl)-4-((1-methyl-1H-tetrazol-5-yl)thio)benzonitrile], the EC50 is over 1000 nM.
For `CS(=O)(=O)c1ccc(C#N)cc1-c1cc(=O)c2c(F)c(C#CC3COC3)c(F)cc2[nH]1` [Example 24, 3-(5,7-Difluoro-6-(oxetan-3-ylethynyl)-4-oxo-1,4-dihydroquinolin-2-yl)-4-(methylsulfonyl)benzonitrile], the EC50 is under 100 nM. Moreover, the Emax under setting [1] was determined as 197%.
On to `CS(=O)(=O)c1ccc(C#N)cc1-c1cc(=O)c2c(F)c(C#Cc3ccncc3)c(F)cc2[nH]1` [Example 22, 3-(5,7-Difluoro-4-oxo-6-(pyridin-4-ylethynyl)-1,4-dihydroquinolin-2-yl)-4-(methylsulfonyl)benzonitrile], for which the EC50 is under 100 nM.
Molecule `COc1ccccc1C#Cc1c(F)cc2[nH]c(-c3cc(C#N)ccc3S(C)(=O)=O)cc(=O)c2c1F` [Example 30, 3-(5,7-Difluoro-6-((2-methoxyphenyl)ethynyl)-4-oxo-1,4-dihydroquinolin-2-yl)-4-(methylsulfonyl)benzonitrile] yielded an EC50 of under 100 nM. Also, under setting [1], the Emax was determined as 283%.
As for `Cc1cc(C#Cc2c(F)cc3[nH]c(-c4cc(C#N)ccc4S(C)(=O)=O)cc(=O)c3c2F)ccn1` [Example 27, 3-(5,7-Difluoro-6-((2-methylpyridin-4-yl)ethynyl)-4-oxo-1,4-dihydroquinolin-2-yl)-4-(methylsulfonyl)benzonitrile], the EC50 was under 100 nM.
